Test results reported in the NIST ThermoML archive (doi:10.1016/j.jct.2013.11.036).

Assay: mn = molality of the nth substance listed, in mol/kg
Details: Liquid

CCCO [propan-1-ol] + O
Details | mass density [kg/m3]
292.05 K, 101 kPa, Pycnometric method, m1 = 0.869 | 991.42
293.45 K, 101 kPa, Pycnometric method, m1 = 2.936 | 980.4
294.85 K, 101 kPa, Pycnometric method, m1 = 56.35 | 851.23
295.15 K, 101 kPa, Pycnometric method, m1 = 0.869 | 990.4
298.15 K, 101 kPa, Pycnometric method, m1 = 0.869 | 989.5
298.15 K, 101 kPa, Pycnometric method, m1 = 2.936 | 978.54
298.15 K, 5000 kPa, Constant-volume piezometry, m1 = 0.869 | 990.5
298.15 K, 5000 kPa, Constant-volume piezometry, m1 = 2.465 | 980.7
298.15 K, 10000 kPa, Constant-volume piezometry, m1 = 0.869 | 992.6
298.15 K, 10000 kPa, Constant-volume piezometry, m1 = 2.465 | 982.7
298.15 K, 20000 kPa, Constant-volume piezometry, m1 = 0.869 | 996.7
298.15 K, 20000 kPa, Constant-volume piezometry, m1 = 2.465 | 986.6
298.15 K, 30000 kPa, Constant-volume piezometry, m1 = 0.869 | 1000.6
298.15 K, 30000 kPa, Constant-volume piezometry, m1 = 2.465 | 990.3
298.15 K, 40000 kPa, Constant-volume piezometry, m1 = 0.869 | 1004.4
298.15 K, 40000 kPa, Constant-volume piezometry, m1 = 2.465 | 993.8
302.13 K, 2844 kPa, Constant-volume piezometry, m1 = 14.38 | 910.6
302.13 K, 7747 kPa, Constant-volume piezometry, m1 = 14.38 | 913.1
302.13 K, 13631 kPa, Constant-volume piezometry, m1 = 14.38 | 915.8
302.8 K, 101 kPa, Pycnometric method, m1 = 2.531 | 974.74
302.8 K, 101 kPa, Pycnometric method, m1 = 7.407 | 941.25
302.8 K, 101 kPa, Pycnometric method, m1 = 14.38 | 908.75
303.15 K, 5000 kPa, Constant-volume piezometry, m1 = 0.869 | 988.8
303.15 K, 5000 kPa, Constant-volume piezometry, m1 = 2.465 | 978.4
303.15 K, 10000 kPa, Constant-volume piezometry, m1 = 0.869 | 990.9
303.15 K, 10000 kPa, Constant-volume piezometry, m1 = 2.465 | 980.5
303.15 K, 20000 kPa, Constant-volume piezometry, m1 = 0.869 | 995
303.15 K, 20000 kPa, Constant-volume piezometry, m1 = 2.465 | 984.4
303.15 K, 30000 kPa, Constant-volume piezometry, m1 = 0.869 | 998.9
303.15 K, 30000 kPa, Constant-volume piezometry, m1 = 2.465 | 988
303.15 K, 40000 kPa, Constant-volume piezometry, m1 = 0.869 | 1002.7
303.15 K, 40000 kPa, Constant-volume piezometry, m1 = 2.465 | 991.6
303.2 K, 3334 kPa, Constant-volume piezometry, m1 = 2.531 | 975.9
303.2 K, 7708 kPa, Constant-volume piezometry, m1 = 2.531 | 977.7
304.65 K, 101 kPa, Pycnometric method, m1 = 2.936 | 975.69
306 K, 101 kPa, Pycnometric method, m1 = 56.35 | 842.18
307.99 K, 2942 kPa, Constant-volume piezometry, m1 = 56.35 | 872.9
307.99 K, 14220 kPa, Constant-volume piezometry, m1 = 56.35 | 880.4
308.55 K, 101 kPa, Pycnometric method, m1 = 0.869 | 986.52
312.07 K, 2844 kPa, Constant-volume piezometry, m1 = 7.407 | 936.5
312.07 K, 6865 kPa, Constant-volume piezometry, m1 = 7.407 | 938.7
312.07 K, 12160 kPa, Constant-volume piezometry, m1 = 7.407 | 941.1
312.65 K, 101 kPa, Pycnometric method, m1 = 2.531 | 969.82
312.65 K, 101 kPa, Pycnometric method, m1 = 7.407 | 934.48
312.65 K, 101 kPa, Pycnometric method, m1 = 14.38 | 901.37
313.75 K, 101 kPa, Pycnometric method, m1 = 2.936 | 971.27
320.75 K, 101 kPa, Pycnometric method, m1 = 56.35 | 829.47
322.35 K, 101 kPa, Pycnometric method, m1 = 2.936 | 966.49
323.15 K, 5000 kPa, Constant-volume piezometry, m1 = 0.869 | 980.8
323.15 K, 5000 kPa, Constant-volume piezometry, m1 = 2.465 | 968.2
323.15 K, 10000 kPa, Constant-volume piezometry, m1 = 0.869 | 982.9
323.15 K, 10000 kPa, Constant-volume piezometry, m1 = 2.465 | 970.3
323.15 K, 20000 kPa, Constant-volume piezometry, m1 = 0.869 | 986.9
323.15 K, 20000 kPa, Constant-volume piezometry, m1 = 2.465 | 974.3
323.15 K, 30000 kPa, Constant-volume piezometry, m1 = 0.869 | 990.8
323.15 K, 30000 kPa, Constant-volume piezometry, m1 = 2.465 | 978
323.15 K, 40000 kPa, Constant-volume piezometry, m1 = 0.869 | 994.5
323.15 K, 40000 kPa, Constant-volume piezometry, m1 = 2.465 | 981.6
326.05 K, 101 kPa, Pycnometric method, m1 = 2.531 | 962.17
326.05 K, 101 kPa, Pycnometric method, m1 = 7.407 | 924.78
326.05 K, 101 kPa, Pycnometric method, m1 = 14.38 | 890.78
331.05 K, 101 kPa, Pycnometric method, m1 = 56.35 | 820.42
340.85 K, 101 kPa, Pycnometric method, m1 = 2.531 | 952.6
340.85 K, 101 kPa, Pycnometric method, m1 = 7.407 | 913.42
340.85 K, 101 kPa, Pycnometric method, m1 = 14.38 | 878.68
342.49 K, 2353 kPa, Constant-volume piezometry, m1 = 14.38 | 877.9
342.49 K, 6159 kPa, Constant-volume piezometry, m1 = 14.38 | 880.3
342.49 K, 10199 kPa, Constant-volume piezometry, m1 = 14.38 | 882.7
342.49 K, 14455 kPa, Constant-volume piezometry, m1 = 14.38 | 885.4
343.48 K, 2942 kPa, Constant-volume piezometry, m1 = 7.407 | 913.7
343.48 K, 6767 kPa, Constant-volume piezometry, m1 = 7.407 | 915.8
343.48 K, 12690 kPa, Constant-volume piezometry, m1 = 7.407 | 919
343.94 K, 2353 kPa, Constant-volume piezometry, m1 = 2.531 | 950.6
343.94 K, 6374 kPa, Constant-volume piezometry, m1 = 2.531 | 952.5
343.94 K, 10787 kPa, Constant-volume piezometry, m1 = 2.531 | 954.3
347.63 K, 3668 kPa, Constant-volume piezometry, m1 = 56.35 | 838
347.63 K, 10120 kPa, Constant-volume piezometry, m1 = 56.35 | 843.1
348.15 K, 5000 kPa, Constant-volume piezometry, m1 = 0.869 | 967.9
348.15 K, 5000 kPa, Constant-volume piezometry, m1 = 2.465 | 952.7
348.15 K, 10000 kPa, Constant-volume piezometry, m1 = 0.869 | 970
348.15 K, 10000 kPa, Constant-volume piezometry, m1 = 2.465 | 954.9
348.15 K, 20000 kPa, Constant-volume piezometry, m1 = 0.869 | 974.1
348.15 K, 20000 kPa, Constant-volume piezometry, m1 = 2.465 | 959.1
348.15 K, 30000 kPa, Constant-volume piezometry, m1 = 0.869 | 978
348.15 K, 30000 kPa, Constant-volume piezometry, m1 = 2.465 | 963.1
348.15 K, 40000 kPa, Constant-volume piezometry, m1 = 0.869 | 981.8
348.15 K, 40000 kPa, Constant-volume piezometry, m1 = 2.465 | 966.8
349.85 K, 101 kPa, Pycnometric method, m1 = 2.531 | 946.25
349.85 K, 101 kPa, Pycnometric method, m1 = 7.407 | 906.29
349.85 K, 101 kPa, Pycnometric method, m1 = 14.38 | 870.71
352.05 K, 101 kPa, Pycnometric method, m1 = 56.35 | 801.03
373.15 K, 5000 kPa, Constant-volume piezometry, m1 = 0.869 | 951.6
373.15 K, 5000 kPa, Constant-volume piezometry, m1 = 2.465 | 934.2
373.15 K, 10000 kPa, Constant-volume piezometry, m1 = 0.869 | 953.9
373.15 K, 10000 kPa, Constant-volume piezometry, m1 = 2.465 | 937
373.15 K, 20000 kPa, Constant-volume piezometry, m1 = 0.869 | 958.3
373.15 K, 20000 kPa, Constant-volume piezometry, m1 = 2.465 | 941.3
373.15 K, 30000 kPa, Constant-volume piezometry, m1 = 0.869 | 962.4
373.15 K, 30000 kPa, Constant-volume piezometry, m1 = 2.465 | 945.7
373.15 K, 40000 kPa, Constant-volume piezometry, m1 = 0.869 | 966.3
373.15 K, 40000 kPa, Constant-volume piezometry, m1 = 2.465 | 949.7
